Values after ≈ are worked out from the molar mass of the structure shown. Values joined by “and” are separate entries in the source; they are usually repeats but may differ in a detail not shown here. Equal values may be shown once. Where a name gives a salt, the structure may show the parent alone. Read-outs that look alike come from different tables or passages of the source.
Key:
Staphyloccus aureus = test: bacteriostatic activity (MIC), Staphylococcus aureus; format: cell-based
Procedure: (§1) The medium containing the solution to be tested is inoculated in the form of three single striae with a 10^-5 times dilution of a bacterial culture aged 16 to 18 hours grown in salted peptone broth at a temperature of 37° C.
(§2) After inoculation, the media are stored at 37° C. for 48 hours, after which the bacterial growth is inspected. The MIC (minimum inhibiting concentrations) are expressed in micrograms of pure product per cubic centimeter of gelose medium required for inhibiting the culture (μg/cc). The control substance used is benzalconium chloride.
(§3) Tests were also carried out to determine the bacteriostatic activity of other compounds according to the invention by the method described above and in comparison with known substances, in particular with benzalconium chloride (compound T in the Tables).

Pseudomonas aeruginosa = test: bacteriostatic activity (MIC), Pseudomonas aeruginosa; format: cell-based
Procedure: as §1, §2, §3

Bacillus subtilis = test: bacteriostatic activity (MIC), Bacillus subtilis; format: cell-based
Procedure: as §1, §2, §3

Escherichia coli = test: bacteriostatic activity (MIC), Escherichia coli; format: cell-based
Procedure: as §1, §2, §3

Pneumobacille = test: bacteriostatic activity (MIC), Pneumobacille; format: cell-based; conditions: Table I, 37° C., 48 hours
Procedure: as §2, with “The medium containing the solution to be tested is inoculated in the form of three single striae with a 10^-5 times dilution of a bacterial culture aged 16 to 18 hours grown in salted peptone broth at a temperature of 37° C. After” for “After”

Serratia = test: bacteriostatic activity (MIC), Serratia; format: cell-based; conditions: Table I, 37° C., 48 hours
Procedure: as §2, with “The medium containing the solution to be tested is inoculated in the form of three single striae with a 10^-5 times dilution of a bacterial culture aged 16 to 18 hours grown in salted peptone broth at a temperature of 37° C. After” for “After”

Proteus vulgaris = test: bacteriostatic activity (MIC), Proteus vulgaris; format: cell-based; conditions: Table I, 37° C., 48 hours
Procedure: as §2, with “The medium containing the solution to be tested is inoculated in the form of three single striae with a 10^-5 times dilution of a bacterial culture aged 16 to 18 hours grown in salted peptone broth at a temperature of 37° C. After” for “After”

Enterbacter cloacae = test: bacteriostatic activity (MIC), Enterbacter cloacae; format: cell-based; conditions: Table I, 37° C., 48 hours
Procedure: as §2, with “The medium containing the solution to be tested is inoculated in the form of three single striae with a 10^-5 times dilution of a bacterial culture aged 16 to 18 hours grown in salted peptone broth at a temperature of 37° C. After” for “After”

Moraxella glucidolytica = test: bacteriostatic activity (MIC), Moraxella glucidolytica; format: cell-based; conditions: Table I, 37° C., 48 hours
Procedure: as §2, with “The medium containing the solution to be tested is inoculated in the form of three single striae with a 10^-5 times dilution of a bacterial culture aged 16 to 18 hours grown in salted peptone broth at a temperature of 37° C. After” for “After”

[1] = Staphylococcus aureus, 48 h, Table VI, bacteriostase containing 20% of serum, read-out: M.I.C.
[2] = Staphylococcus aureus, 48 h, Table VI, bacteriostase without serum, read-out: M.I.C.
[3] = Pseudomonas aeruginosa, 48 h, Table VI, bacteriostase containing 20% of serum, read-out: M.I.C.
[4] = Pseudomonas aeruginosa, 48 h, Table VI, bacteriostase without serum, read-out: M.I.C.
[5] = Bacillus subtilis, 48 h, Table VI, bacteriostase containing 20% of serum, read-out: M.I.C.
[6] = Bacillus subtilis, 48 h, Table VI, bacteriostase without serum, read-out: M.I.C.
[7] = Escherichia coli, 48 h, Table VI, bacteriostase containing 20% of serum, read-out: M.I.C.
[8] = Escherichia coli, 48 h, Table VI, bacteriostase without serum, read-out: M.I.C.
[9] = Table I, with 20% of serum, 37° C., 48 hours
[10] = Table I, without serum, 37° C., 48 hours
[11] = Table VI, bacteriostase containing 20% of serum
[12] = Table VI, bacteriostase without serum

## CCCCCCCCCCCCOCC(O)CN.Cl (stereo not shown) [Compound 2, 3-dodecyloxy-2-hydroxy-1-aminopropane hydrochloride]
Staphyloccus aureus; [1]
  MIC: 75 µg/mL
Staphyloccus aureus; [2]
  MIC: 10 µg/mL
Pseudomonas aeruginosa; [3]
  MIC: 1200 µg/mL
Pseudomonas aeruginosa; [4]
  MIC: 800 µg/mL
Bacillus subtilis; [5]
  MIC: 30 µg/mL
Bacillus subtilis; [6]
  MIC: 5 µg/mL
Escherichia coli; [7]
  MIC: 100 µg/mL
Escherichia coli; [8]
  MIC: 20 µg/mL

## Br.CCCCCCCCCCOCC(O)CN (stereo not shown) [Compound 3, 3-decyloxy-2-hydroxy-1-aminopropane hydrobromide]
Staphyloccus aureus; [1]
  MIC: 75 µg/mL
Staphyloccus aureus; [2]
  MIC: 30 µg/mL
Pseudomonas aeruginosa; [3]
  MIC: 250 µg/mL
Pseudomonas aeruginosa; [4]
  MIC: 100 µg/mL
Bacillus subtilis; [5]
  MIC: 50 µg/mL
Bacillus subtilis; [6]
  MIC: 25 µg/mL
Escherichia coli; [7]
  MIC: 60 µg/mL
Escherichia coli; [8]
  MIC: 30 µg/mL

## CCCCCCCCC(O)CN (stereo not shown) [Compound 4]
Staphyloccus aureus; [1]
  MIC: 150 µg/mL (≈ 866 µM)
Staphyloccus aureus; [2]
  MIC: 70 µg/mL (≈ 404 µM)
Pseudomonas aeruginosa; [3]
  MIC: 500 µg/mL (≈ 2890 µM)
Pseudomonas aeruginosa; [4]
  MIC: 400 µg/mL (≈ 2310 µM)
Bacillus subtilis; [5]
  MIC: 75 µg/mL (≈ 433 µM)
Bacillus subtilis; [6]
  MIC: 20 µg/mL (≈ 115 µM)
Escherichia coli; [7]
  MIC: 200 µg/mL (≈ 1150 µM)
Escherichia coli; [8]
  MIC: 125 µg/mL (≈ 721 µM)

## CCCCCCCCCCOCC(O)C[N+](C)(C)C (stereo not shown) [Compound 5, 3-decyloxy-2-hydroxy-N,N,N-trimethyl-1-ammonium chloride]
Staphyloccus aureus; [1]
  MIC: 50 µg/mL
Staphyloccus aureus; [2]
  MIC: 25 µg/mL
solubility
  solubility in water: soluble in water
Pseudomonas aeruginosa; [3]
  MIC: 750 µg/mL
Pseudomonas aeruginosa; [4]
  MIC: 600 µg/mL
Bacillus subtilis; [5]
  MIC: 40 µg/mL
Bacillus subtilis; [6]
  MIC: 25 µg/mL
Escherichia coli; [7]
  MIC: 200 µg/mL
Escherichia coli; [8]
  MIC: 125 µg/mL

## CCCCCCCCOCC(O)CN.Cl (stereo not shown) [Compound 6, 3-octyloxy-2-hydroxy-1-aminopropane hydrochloride]
Staphyloccus aureus; [1]
  MIC: > 250 µg/mL
Staphyloccus aureus; [2]
  MIC: > 150 µg/mL
Pseudomonas aeruginosa; [3]
  MIC: 500 µg/mL
Pseudomonas aeruginosa; [4]
  MIC: 300 µg/mL
Bacillus subtilis; [5]
  MIC: 200 µg/mL
Bacillus subtilis; [6]
  MIC: 150 µg/mL
Escherichia coli; [7]
  MIC: 300 µg/mL
Escherichia coli; [8]
  MIC: 150 µg/mL

## CCCCCCCCCC(O)CN (stereo not shown) [Compound 7]
Staphyloccus aureus; [1]
  MIC: 150 µg/mL (≈ 801 µM)
Staphyloccus aureus; [2]
  MIC: 75 µg/mL (≈ 400 µM)
Pseudomonas aeruginosa; [3]
  MIC: 500 µg/mL (≈ 2670 µM)
Pseudomonas aeruginosa; [4]
  MIC: 200 µg/mL (≈ 1070 µM)
Bacillus subtilis; [5]
  MIC: 50 µg/mL (≈ 267 µM)
Bacillus subtilis; [6]
  MIC: 30 µg/mL (≈ 160 µM)
Escherichia coli; [7]
  MIC: 150 µg/mL (≈ 801 µM)
Escherichia coli; [8]
  MIC: 75 µg/mL (≈ 400 µM)

## CCCCCCCCCCCC(O)CN (stereo not shown) [Compound 8, 2-hydroxy-1-amino tridecane]
Staphyloccus aureus; [1]
  MIC: 40 µg/mL (≈ 186 µM)
Staphyloccus aureus; [2]
  MIC: 20 µg/mL (≈ 92.9 µM)
Pseudomonas aeruginosa; [3]
  MIC: > 1500 µg/mL
Pseudomonas aeruginosa; [4]
  MIC: > 1000 µg/mL
Bacillus subtilis; [5]
  MIC: 30 µg/mL (≈ 139 µM)
Bacillus subtilis; [6]
  MIC: 3 µg/mL (≈ 13.9 µM)
Escherichia coli; [7]
  MIC: 75 µg/mL (≈ 348 µM)
Escherichia coli; [8]
  MIC: 10 µg/mL (≈ 46.4 µM)

## CCCCCCCCCCCCCCOCC(O)CN (stereo not shown) [Compound 9, 3-tetradecyloxy-2-hydroxyamino-1-propane hydrochloride]
Staphyloccus aureus; [1]
  MIC: 50 µg/mL
Staphyloccus aureus; [2]
  MIC: 10 µg/mL
solubility
  solubility in water: soluble in water
Pseudomonas aeruginosa; [3]
  MIC: 2500 µg/mL
Pseudomonas aeruginosa; [4]
  MIC: 1250 µg/mL
Bacillus subtilis; [5]
  MIC: 30 µg/mL
Bacillus subtilis; [6]
  MIC: 7 µg/mL
Escherichia coli; [7]
  MIC: > 1000 µg/mL
Escherichia coli; [8]
  MIC: > 500 µg/mL

## CCCCCCCCCCCCCCCCCCOCC(O)CN.Cl (stereo not shown) [Compound 10, 3-octadecyloxy-2-hydroxy-1-aminopropane hydrochloride]
Staphyloccus aureus; [1]
  MIC: > 500 µg/mL
Staphyloccus aureus; [2]
  MIC: > 300 µg/mL
Pseudomonas aeruginosa; [3]
  MIC: > 2500 µg/mL
Pseudomonas aeruginosa; [4]
  MIC: 1300 µg/mL
Bacillus subtilis; [5]
  MIC: > 500 µg/mL
Bacillus subtilis; [6]
  MIC: > 300 µg/mL
Escherichia coli; [7]
  MIC: > 1000 µg/mL
Escherichia coli; [8]
  MIC: > 500 µg/mL

## COCC(O)CN (stereo not shown) [Compound 11]
Staphyloccus aureus; [1]
  MIC: > 500 µg/mL
Staphyloccus aureus; [2]
  MIC: > 300 µg/mL
Pseudomonas aeruginosa; [3]
  MIC: > 2500 µg/mL
Pseudomonas aeruginosa; [4]
  MIC: > 1300 µg/mL
Bacillus subtilis; [5]
  MIC: > 500 µg/mL
Bacillus subtilis; [6]
  MIC: > 300 µg/mL
Escherichia coli; [7]
  MIC: > 1000 µg/mL
Escherichia coli; [8]
  MIC: > 500 µg/mL

## CCOCC(O)CN.Cl (stereo not shown) [Compound 12, 3-ethoxy-2-hydroxy-1-aminopropane hydrochloride]
Staphyloccus aureus; [1]
  MIC: > 500 µg/mL
Staphyloccus aureus; [2]
  MIC: > 300 µg/mL
Pseudomonas aeruginosa; [3]
  MIC: > 2500 µg/mL
Pseudomonas aeruginosa; [4]
  MIC: > 1300 µg/mL
Bacillus subtilis; [5]
  MIC: > 500 µg/mL
Bacillus subtilis; [6]
  MIC: > 300 µg/mL
Escherichia coli; [7]
  MIC: > 1000 µg/mL
Escherichia coli; [8]
  MIC: > 500 µg/mL

## CCCCCCCCCCOCC(O)CN (stereo not shown) [Compound 13, 3-decyloxy-2-hydroxy-1-aminopropane]
Staphyloccus aureus; [1]
  MIC: 80 µg/mL (≈ 346 µM)
Staphyloccus aureus; [2]
  MIC: 40 µg/mL (≈ 173 µM)
Pseudomonas aeruginosa; [3]
  MIC: 400 µg/mL (≈ 1730 µM)
Pseudomonas aeruginosa; [4]
  MIC: 150 µg/mL (≈ 648 µM)
Bacillus subtilis; [5]
  MIC: 40 µg/mL (≈ 173 µM)
Bacillus subtilis; [6]
  MIC: 20 µg/mL (≈ 86.4 µM)
Escherichia coli; [7]
  MIC: 250 µg/mL (≈ 1080 µM)
Escherichia coli; [8]
  MIC: 50 µg/mL (≈ 216 µM)

## CCCCCCCCCCSCC(O)CN (stereo not shown) [Compound 14, 3-decanethio-2-hydroxy-1-aminopropane hydrochloride]
Staphyloccus aureus; [1]
  MIC: 70 µg/mL
Staphyloccus aureus; [2]
  MIC: 10 µg/mL
solubility; alcohol
  solubility in alcohol: soluble in alcohol
Pseudomonas aeruginosa; [3]
  MIC: 600 µg/mL
Pseudomonas aeruginosa; [4]
  MIC: 200 µg/mL
Bacillus subtilis; [5]
  MIC: 30 µg/mL
Bacillus subtilis; [6]
  MIC: 5 µg/mL
Escherichia coli; [7]
  MIC: 250 µg/mL
Escherichia coli; [8]
  MIC: 50 µg/mL

## benzalconium chloride [T, reference compound]
Pneumobacille; with 20% of serum
  MIC: 75 μg/cc
Pneumobacille; without serum
  MIC: 35 μg/cc
Staphyloccus aureus; [9]
  MIC: 12 μg/cc
Staphyloccus aureus; [10]
  MIC: 1.5 μg/cc
Staphyloccus aureus; [11]
  M.I.C.: 10 μg/cc and 5 μg/cc
Staphyloccus aureus; [12]
  M.I.C.: 1.5 μg/cc and 1 μg/cc
Serratia; with 20% of serum
  MIC: 30 μg/cc
Serratia; without serum
  MIC: 10 μg/cc
Pseudomonas aeruginosa; [9]
  MIC: 850 μg/cc
Pseudomonas aeruginosa; [10]
  MIC: 600 μg/cc
Pseudomonas aeruginosa; [11]
  M.I.C.: 750 μg/cc and 850 μg/cc and 1200 μg/cc and 1000 μg/cc
Pseudomonas aeruginosa; [12]
  M.I.C.: 500 μg/cc and 600 μg/cc and 700 μg/cc
Proteus vulgaris; with 20% of serum
  MIC: 75 μg/cc
Proteus vulgaris; without serum
  MIC: 35 μg/cc
Enterbacter cloacae; with 20% of serum
  MIC: 75 μg/cc
Enterbacter cloacae; without serum
  MIC: 20 μg/cc
Bacillus subtilis; [9]
  MIC: 7.5 μg/cc
Bacillus subtilis; [10]
  MIC: 2.5 μg/cc
Bacillus subtilis; [11]
  M.I.C.: 2.5 μg/cc and 4 μg/cc
Bacillus subtilis; [12]
  M.I.C.: 1 μg/cc and 2 μg/cc and 1.5 μg/cc
Escherichia coli; [9]
  MIC: 300 μg/cc
Escherichia coli; [10]
  MIC: 125 μg/cc
Escherichia coli; [11]
  M.I.C.: 200 μg/cc and 250 μg/cc and 300 μg/cc
Escherichia coli; [12]
  M.I.C.: 125 μg/cc and 150 μg/cc
Moraxella glucidolytica; with 20% of serum
  MIC: 150 μg/cc
Moraxella glucidolytica; without serum
  MIC: 75 μg/cc
